Reference: US20240132477A1, “Benzimidazole Derivatives and Their Use As Inhibitors of ITK For The Treatment of Skin Disease” (PFIZER INC., priority 2020, published 2024)

Assays:
[1] = test system: IL-2 in supernatants from activated CD4+ human T-cells; assay: IL-2 inhibition in supernatants from activated CD4+ human T-cells (cisbio HTRF); format: cell-based; details: T-cell; geometric mean of count n; activated CD4+ human T-cells, 20 to 24 hrs; read-out: IL-2 IC50
Method: IL-2-Inhibition Activity, IC50 (uM)
IL-2 inhibition activity in supernatants from activated CD4+ human T-cells was determined by measuring the effect of a test compound on the activity using the cisbio HTRF™ technology.
Human CD4+ T cells were activated with CD3/CD28 for 3 days and expanded for an additional 4-6 days (7 to 9 days total). On day 0, frozen CD4+ T cells were thawed, treated with CD3/CD28 Dynabeads, and incubated at 37° C./5% CO2. On day 3, the beads were removed, and the cells were diluted to 5×10^5 cells/cm^2, placed in G-Rex10 flask, and incubated at 37° C./5% CO2. On day 7 to day 9 the cells were removed from the G-Rex flasks, counted and diluted back to 1×10^6 cells/ml in standard tissue culture flask.
The expanded CD4+ T-cells were centrifuged at 300×g for 10 minutes and resuspended to 0.5 million cells per ml (30,000 cells/well). 60 μl of CD4+ T cells were added per well to a 384 well plate containing 0.1 μL of varying concentrations of test compound in DMSO. The plates were incubated for 15 min at 37° C./5% CO2. 20 μl of diluted ImmunoCult™ (STEMCELL Technologies, 1:12.5 in T cell assay media) were added to all wells of the plate (1:50 final assay concentration). The plates were incubated for an additional 20 to 24 hrs at 37° C./5% CO2. The plates were centrifuged at 300×g for 10 minutes. 16 μL of supernatant was removed and combined with 4 μl of IL-2 HTRF Abs. (cisbio kit). Plates were incubated for 3 hours at RT and read with an EnVision plate reader at 665 nm and 615 nm wavelengths. The concentrations and resulting effect values for the tested compound were plotted and the concentration of compound required for 50% effect (IC50) was determined with the four-parameter logistic dose response equation.

[2] = biological target: IL-2-Inducible T-Cell Kinase (ITK) (Homo sapiens (Human), UniProt Q08881); assay: ITK enzyme assay; format: biochemical; details: geometric mean of count n; ITK FL enzyme, BTK peptide substrate
Method: IL-2-Inducible T-Cell Kinase (ITK) Activity, IC50 (uM)
ITK activity was determined by measuring the effect of a test compound in an ITK enzyme assay.
1.0 M HEPES Buffer pH 7.5 solution was prepared as follows: 238.3 g HEPES free acid (Sigma) and 800 mL of water were combined, and the mixture was stirred until complete dissolution. The pH was adjusted to 7.5 via titration with 5N NaOH and the volume adjusted to 1000 mL. The solution was filtered and sterilized.
ITK assay buffer was prepared as follows: 50 mL of HPLC-grade water was treated with 2 mL of 1.0 M HEPES Buffer, 500 μL of 2% Gelatin (Sigma), 1.0 mL of aqueous MgCl2 solution (1.0 M), and 1.0 mL of aqueous glutathione solution (0.5 M), and the solution was mixed. The solution was brought to 99 mL in a graduated cylinder by addition of water and sterilized through a 0.2 μm filter. 0.1 mL of Brij-35™ Surfact-AmpS™ Detergent Solution (10% w/v aqueous solution, ThermoFisher) and 1.0 mL of ATP (Teknova, 100 mM) were added and the solution was mixed.
Preparation of 1.33×ITK enzyme solution was as follows: 49.99 mL of ITK assay buffer was treated with 4.1 μL of ITK enzyme (ITK FL (N-Flag and C-His tagged, ˜72 kDa) Lake Pharma, 0.25 mg/ml in a buffer containing 25 mM Tris pH 7.8, 150 mM NaCl, 10% glycerol and 2 mM TCEP) and the mixture was gently agitated. The resulting solution was stored on ice. 30 Minutes prior to use, the enzyme solution was removed from ice and equilibrated to RT by incubation in a RT water bath.
Preparation of 4×ITK substrate solution was as follows: 50 mL of ITK assay buffer was treated with 100 μL of BTK peptide (China Peptide Company, 2 mM stock solution in DMSO). The tube was capped, mixed by gently inverting the tube, and then stored on ice. 30 Minutes prior to use, the substrate solution was removed from ice and equilibrated to RT by incubation in a RT water bath.
At the time of assay, 7.5 μL of the 1.33×ITK enzyme solution was added to plate wells containing 0.1 μL of varying concentrations of test compound in DMSO. The plate was incubated 30 min at RT. The plate wells were each treated with 2.5 uL of the 4×ITK substrate solution and the plate was sealed (TopSeal™, Perkin Elmer). The plate was spun at 1000 rpm for 30 sec and then incubated for 60 min at RT. The seal was removed, and each well was treated with 10 μL of Stop/Detect Buffer (20 mM HEPES pH 7.5, 0.01% gelatin, 1 nM LANCE PT66 (Perkin Elmer), 16.5 μg/ml Surelight APC (Perkin Elmer), 10 mM EDTA, 250 mM NaCl). The plate was again covered and was spun at 1000 rpm for 30 seconds. The plate was allowed to incubate overnight at RT and in a closed carrier to reduce dehydration. The seal was removed, and the fluorescence was read with a plate reader with […]. The concentrations and resulting effect values for the tested compound were plotted and the concentration of compound required for 50% effect (IC50) was determined with the four-parameter logistic dose response equation.

[3] = biological target: Tropomyosin Receptor Kinase A (TRKA, NTRK1 enzyme) (Homo sapiens (Human), UniProt P04629); assay: TRKA (NTRK1) ThermoFisher Z'-LYTE assay; format: biochemical; details: test compound 1 uM, ATP 1 mM; arithmetic mean of count n; read-out: TRKA % inhibition
Method: Tropomyosin Receptor Kinase a (TRKA) Activity, % Inhibition
TRKA, also known as neurotrophic tyrosine kinase receptor type 1 (NTKR1) activity was determined by measuring the effect of a test compound on the activity against the NTRK1 enzyme using the ThermoFisher Z′-LYTE Assay fluorescence-based coupled enzyme format (www.thermofisher.com/selectscreen). Test compounds were screened at a fixed concentration of 1 uM and the % inhibition was determined compared to controls at a fixed ATP concentration of 1 mM. The resulting effect value for the tested compound was compared to the assay controls to determine the % inhibition (%). % Inhibition (%) values for compounds of the invention are presented in the Table that follows.

Chain of IL-2-Inducible T-Cell Kinase (ITK) (Q08881 whole entry): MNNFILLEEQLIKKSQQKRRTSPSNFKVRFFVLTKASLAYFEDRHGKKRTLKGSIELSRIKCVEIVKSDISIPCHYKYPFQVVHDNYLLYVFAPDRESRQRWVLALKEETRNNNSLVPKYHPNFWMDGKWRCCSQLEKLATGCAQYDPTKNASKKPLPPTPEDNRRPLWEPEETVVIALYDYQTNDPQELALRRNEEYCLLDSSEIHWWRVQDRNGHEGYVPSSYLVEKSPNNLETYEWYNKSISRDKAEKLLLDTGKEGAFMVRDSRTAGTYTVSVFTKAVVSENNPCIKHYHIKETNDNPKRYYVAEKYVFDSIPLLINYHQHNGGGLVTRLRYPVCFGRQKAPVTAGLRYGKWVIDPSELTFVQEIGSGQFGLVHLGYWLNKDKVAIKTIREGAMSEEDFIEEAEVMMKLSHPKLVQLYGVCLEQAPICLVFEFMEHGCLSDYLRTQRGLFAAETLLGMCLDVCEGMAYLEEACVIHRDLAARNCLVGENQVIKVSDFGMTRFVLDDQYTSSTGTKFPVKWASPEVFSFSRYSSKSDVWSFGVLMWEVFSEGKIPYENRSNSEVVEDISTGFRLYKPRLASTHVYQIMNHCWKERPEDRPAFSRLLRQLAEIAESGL
Chain of Tropomyosin Receptor Kinase A (TRKA, NTRK1 enzyme) (P04629 33-796): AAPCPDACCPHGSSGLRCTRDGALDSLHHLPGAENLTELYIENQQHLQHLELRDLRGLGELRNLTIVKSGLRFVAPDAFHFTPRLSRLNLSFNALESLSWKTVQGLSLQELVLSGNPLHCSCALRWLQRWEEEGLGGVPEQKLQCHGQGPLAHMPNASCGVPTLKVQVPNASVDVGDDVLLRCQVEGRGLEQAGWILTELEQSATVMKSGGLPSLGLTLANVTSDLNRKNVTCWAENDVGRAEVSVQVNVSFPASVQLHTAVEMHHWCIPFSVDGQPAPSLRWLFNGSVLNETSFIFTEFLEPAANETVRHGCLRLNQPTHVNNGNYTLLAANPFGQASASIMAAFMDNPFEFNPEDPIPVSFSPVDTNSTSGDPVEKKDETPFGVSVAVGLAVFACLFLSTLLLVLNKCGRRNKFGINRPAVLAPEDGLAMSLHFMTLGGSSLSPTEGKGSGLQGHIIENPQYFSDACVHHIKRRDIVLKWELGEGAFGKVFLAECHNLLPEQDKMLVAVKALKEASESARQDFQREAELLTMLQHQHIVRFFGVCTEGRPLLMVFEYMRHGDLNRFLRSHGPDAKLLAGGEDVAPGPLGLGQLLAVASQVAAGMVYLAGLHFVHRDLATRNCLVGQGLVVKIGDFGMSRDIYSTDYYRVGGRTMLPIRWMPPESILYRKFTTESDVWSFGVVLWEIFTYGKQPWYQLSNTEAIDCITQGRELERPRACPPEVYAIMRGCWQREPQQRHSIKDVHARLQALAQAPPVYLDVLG

| SMILES | IC50 [1] [µM] | IC50 [2] [µM] | inhibition at 1 µM [3] [%] |
| --- | --- | --- | --- |
| Cc1cc2[nH]c(-c3n[nH]c4c3C[C@@H]3C[C@]3(C)C4)nc2cc1N(C)C(=O)C(C)N1CCCOCC1 (stereo partly drawn) [Example 15, N-methyl-N-(6-methyl-2-((4aS,5aR)-5a-methyl-1,4,4a,5,5a,6-hexahydrocyclopropa[f]indazol-3-yl)-1H-benzo[d]imidazol-5-yl)-2-(1,4-oxazepan-4-yl)propenamide] | 0.166 | 0.042 |  |
| Cc1cc2[nH]c(-c3n[nH]c4c3C[C@@H]3C[C@]3(C)C4)nc2cc1N(C)C(=O)C1(F)CC1 [Example 32, 1-Fluoro-N-methyl-N-(6-methyl-2-((4aS,5aR)-5a-methyl-1,4,4a,5,5a,6-hexahydrocyclopropa[f]indazol-3-yl)-1H-benzo[d]imidazol-5-yl)cyclopropane-1-carboxamide] | 0.118 | 0.008 |  |
| CCC(C(=O)N(C)c1cc2nc(-c3n[nH]c4c3C[C@@H]3C[C@]3(C)C4)[nH]c2cc1C)N1CCCC1=O (stereo partly drawn) [Example 37, N-Methyl-N-(6-methyl-2-((4aS,5aR)-5a-methyl-1,4,4a,5,5a,6-hexahydrocyclopropa[f]indazol-3-yl)-1H-benzo[d]imidazol-5-yl)-2-(2-oxopyrrolidin-1-yl)butanamide] | 0.506 | 0.061 |  |
| Cc1cc2[nH]c(-c3n[nH]c4c3C[C@@H]3C[C@]3(C)C4)nc2cc1N(C)C(=O)C1(C)CC1 [Example 24, N,1-Dimethyl-N-(5-methyl-2-((4aS,5aR)-5a-methyl-1,4,4a,5,5a,6-hexahydrocyclopropa[f]indazol-3-yl)-1H-benzo[d]imidazol-6-yl)cyclopropane-1-carboxamide] | 0.259 | 0.037 |  |
| C[C@H](C(=O)N(C)c1cc(F)c2nc(-c3n[nH]c4c3C[C@@H]3C[C@]3(C)C4)[nH]c2c1)N1CCCOC1=O [Example 10, (R)-N-(4-fluoro-2-((4aS,5aR)-5a-methyl-1,4,4a,5,5a,6-hexahydrocyclopropa[f]indazol-3-yl)-1H-benzo[d]imidazol-6-yl)-N-methyl-2-(2-oxo-1,3-oxazinan-3-yl)propenamide] | 0.342 | 0.049 |  |
| CCc1cc2[nH]c(-c3n[nH]c4c3C[C@@H]3C[C@]3(C)C4)nc2cc1N(C)C(C)=O [Example 16, N-(6-ethyl-2-((4aS,5aR)-5a-methyl-1,4,4a,5,5a,6-hexahydrocyclopropa[f]indazol-3-yl)-1H-benzo[d]imidazol-5-yl)-N-methylacetamide] | 0.118 | 0.023 |  |

Now those with a lower IC50 [1], led by results:

| IC50 [1] [µM] | IC50 [2] [µM] | inhibition at 1 µM [3] [%] | SMILES |
| --- | --- | --- | --- |
| 0.062 | 0.005 | 97 | CC(=O)N(CC(=O)N(C)c1cc2nc(-c3n[nH]c4c3C[C@@H]3C[C@]3(C)C4)[nH]c2cc1C)C(C)C [Example 35, 2-(N-Isopropylacetamido)-N-methyl-N-(6-methyl-2-((4aS,5aR)-5a-methyl-1,4,4a,5,5a,6-hexahydrocyclopropa[f]indazol-3-yl)-1H-benzo[d]imidazol-5-yl)acetamide] |
| 0.069 | 0.003 | 98 | Cc1cc2[nH]c(-c3n[nH]c4c3C[C@@H]3C[C@]3(C)C4)nc2cc1N(C)C(=O)CN1CCCC1=O [Example 31, N-Methyl-N-(6-methyl-2-((4aS,5aR)-5a-methyl-1,4,4a,5,5a,6-hexahydrocyclopropa[f]indazol-3-yl)-1H-benzo[d]imidazol-5-yl)-2-(2-oxopyrrolidin-1-yl)acetamide] |
| 0.049 | 0.007 |  | Cc1cc2nc(-c3n[nH]c4c3C[C@@H]3C[C@]3(C)C4)[nH]c2cc1N(C)C(=O)C1C[C@@H]2[C@H](C1)C2(F)F (stereo partly drawn) [Example 13, (1R,5S)-6,6-difluoro-N-methyl-N-(5-methyl-2-((4aS,5aR)-5a-methyl-1,4,4a,5,5a,6-hexahydrocyclopropa[f]indazol-3-yl)-1H-benzo[d]imidazol-6-yl)bicyclo[3.1.0]hexane-3-carboxamide] |
| 0.114 | 0.013 |  | Cc1cc2[nH]c(-c3n[nH]c4c3C[C@@H]3C[C@]3(C)C4)nc2cc1N(C)C(=O)[C@H]1CCOC1 [Example 40, (S)-N-Methyl-N-(6-methyl-2-((4aS,5aR)-5a-methyl-1,4,4a,5,5a,6-hexahydrocyclopropa[f]indazol-3-yl)-1H-benzo[d]imidazol-5-yl)tetrahydrofuran-3-carboxamide] |
| 0.067 | 0.008 |  | Cc1cc2[nH]c(-c3n[nH]c4c3C[C@@H]3C[C@]3(C)C4)nc2cc1N(C)C(=O)C1CC1 [Example 19, N-Methyl-N-(5-methyl-2-((4aS,5aR)-5a-methyl-1,4,4a,5,5a,6-hexahydrocyclopropa[f]indazol-3-yl)-1H-benzo[d]imidazol-6-yl)cyclopropanecarboxamide] |
| 0.053 | 0.005 |  | CCC(=O)N(C)c1cc2nc(-c3n[nH]c4c3C[C@@H]3C[C@]3(C)C4)[nH]c2cc1C [Example 33, N-Methyl-N-(6-methyl-2-((4aS,5aR)-5a-methyl-1,4,4a,5,5a,6-hexahydrocyclopropa[f]indazol-3-yl)-1H-benzo[d]imidazol-5-yl)propionamide] |
| 0.047 | 0.006 |  | CCCC(=O)N(C)c1cc2nc(-c3n[nH]c4c3C[C@@H]3C[C@]3(C)C4)[nH]c2cc1C [Example 26, N-Methyl-N-(6-methyl-2-((4aS,5aR)-5a-methyl-1,4,4a,5,5a,6-hexahydrocyclopropa[f]indazol-3-yl)-1H-benzo[d]imidazol-5-yl)butyramide] |
| 0.057 | 0.007 |  | Cc1cc2[nH]c(-c3n[nH]c4c3C[C@@H]3C[C@]3(C)C4)nc2cc1N(C)C(=O)C(C)(C)F [Example 28, 2-Fluoro-N,2-dimethyl-N-(6-methyl-2-((4aS,5aR)-5a-methyl-1,4,4a,5,5a,6-hexahydrocyclopropa[f]indazol-3-yl)-1H-benzo[d]imidazol-5-yl)propenamide] |
